Results on 37 compounds are retold here after ChEMBL document CHEMBL3507680, “University of Dundee, Gates Library screen for HepG2 cell viability”.

Each structure is given as a SMILES string.

A short description of the data set: Human HepG2 cell viability assay in 384 well format. The class given is toxicity, cell-based. Details: dose 125 nL, time 70.5 hour; concentration not given beside the values. The conditions noted are these: HepG2 cells, read-out: Inhibition.
As for `CC(C)C(=O)N1CCCC2(CCCN2Cc2cccnc2)C1` (configuration not stated), the cytotoxicity at 70.5 h was determined as 1.65%.
For `Cc1cnc(N2CCC3(CC2)CC(NS(C)(=O)=O)CO3)nc1` (configuration not stated) the value was 1.23%.
Consider `CC(=O)N1CCO[C@@H]2CN(C(=O)c3ccc4ccccc4c3)CC[C@@H]2C1`, for which the cytotoxicity at 70.5 h is -2.64%.
Regarding `O=C(c1cc2c(s1)CCN2C(=O)C1CC1)N1CCCC1`, the cytotoxicity at 70.5 h is -4.7%.
Turning to `Cn1c(C(=O)NC2CCCC2)nc2c1CCN(Cc1ccccc1)C2`, the cytotoxicity at 70.5 h was -5.5%.
Consider `Cc1cnc(N2CCC3(CC2)CC3CNC(=O)N(C)C)nc1` (configuration not stated), for which the cytotoxicity at 70.5 h is -6.55%.
For `COCCC1COC2(CCN(C(=O)C3CCC3)CC2)C1` (configuration not stated) the value was -3.7%.
For the compound `Cc1nnc([C@@H]2CC[C@@H]3[C@@H](CCN3C3CCC3)O2)o1`, the cytotoxicity at 70.5 h was -4.45%.
The result for `Fc1cnc(N2CCOCC3(CCCN(c4cnccn4)C3)C2)nc1` (configuration not stated) reads -3.83%; that for `CN1CCN(C(=O)c2cc3c(s2)CCN3C(=O)C2CC2)CC1`, -1.1%.
With `O=C(N1CCOCC1)N1CC[C@H]2[C@@H]1CCC(=O)N2c1ccccc1`, the cytotoxicity at 70.5 h was -1.24%.
For `O=C(c1cnccn1)N1CCCC2(CCCN2Cc2cccnc2)C1` (configuration not stated) the value was -1.76%; for `O=C(c1ccc[nH]1)N1CCCC2(CCCN2Cc2cccnc2)C1` (configuration not stated), 11.9%.
As for `O=C(C1CC1)N1CC[C@H]2[C@@H]1CCC(=O)N2c1ccccc1`, the cytotoxicity at 70.5 h is -2.42%.
As to `CCS(=O)(=O)NCC1OCCc2cn(CCOC)nc21` (configuration not stated), the cytotoxicity at 70.5 h was -3.26%.
For `COC[C@H]1CC[C@H]2[C@H](CCN2S(=O)(=O)Cc2ccccc2)O1` the value was -4.05%; for `Cc1cc(C(=O)N2CCCC3(CCCN3Cc3cccnc3)C2)[nH]n1` (configuration not stated), 12.8%.
The result for `CS(=O)(=O)N1CCC2(CC1)CC(OCC1CCOCC1)CO2` (configuration not stated) reads -7.58%; that for `Cc1ccccc1C(=O)N1CCCn2nnc(Cn3cccn3)c2C1`, -9.23%.
The result for `CCS(=O)(=O)N1CC[C@H]2OCC[C@@]2(c2nnc(C)o2)C1` reads -7.55%; that for `CC(C)CN1CCCC2(CCN(c3ccccn3)C2)C1` (configuration not stated), 8.64%.
`Cn1cc(CN2CC[C@H]3O[C@H](C(=O)NC4CC4)CC[C@H]32)c2ccccc21`: the cytotoxicity at 70.5 h is -3.36%.
For `CC(=O)N1CCO[C@@H]2CN(C(=O)c3ccc4ncccc4c3)CC[C@@H]2C1` the value was -3.03%.
For `O=S(=O)(C1CC1)N1CC[C@@H](OCC2CC2)[C@@H]1Cc1ccncc1` the value was -4.77%.
The result for `Cc1cnc(N2CCC3(CC2)CC3CNC(=O)C2CCC2)nc1` (configuration not stated) reads -1.64%; that for `CN(C)C[C@H]1OC[C@@H]2CCN(C(=O)c3ccc[nH]3)C[C@@H]21`, -4.7%.
Turning to `CN1C[C@@H]2COC[C@]2(C(=O)NCCc2cccs2)C1`, the cytotoxicity at 70.5 h is -5.55%.
The result for `CCCS(=O)(=O)N1Cc2ccnn2CC(c2nc(C)no2)C1` (configuration not stated) reads -4.93%; that for `COc1ccc(N2CCCC3(C2)CN(c2cccnc2)CCO3)cc1` (configuration not stated), -9.47%.
The result for `Cc1ccc(Nc2ncnc3c2CCN(CC2CCOC2)CC3)cc1` (configuration not stated) reads -7.38%; that for `c1cnc(N2CCO[C@H]3CN(Cc4csnn4)C[C@H]32)cn1`, -11.1%.
Consider `Cn1cc(CN2CCC3(CCC(C(=O)NCC4CC4)C3)CC2)cn1` (configuration not stated), for which the cytotoxicity at 70.5 h was -9.54%.
The result for `Cc1ccsc1C(=O)N1CC[C@H]2CO[C@H](CN(C)C)[C@H]2C1` reads -6.98%; that for `c1cnc(N2CC[C@@H]3O[C@@H](COCc4cccnc4)CC[C@@H]32)nc1`, -0.916%.
Regarding `O=C(c1ccncc1)N1CCOC2(COCCN(c3cccnc3)C2)C1` (configuration not stated), the cytotoxicity at 70.5 h is -8.51%.
The result for `c1cnc(N2CCOC3(CCCN(c4cnccn4)C3)C2)nc1` (configuration not stated) reads -8.79%; that for `CN(C)C[C@]12COC[C@H]1CN(Cc1ccccn1)C2`, -8.89%.
